Measurements from PubChem BioAssay (NCI).
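Five concentrations, 48 hours, 96-well plates. GI50 is the concentration that inhibits growth by half. TGI is the concentration that stops growth completely.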

Key:
Experiment in all cases: NCI-60 cell line screen, 48 h
786-0 renal = system: 786-0 renal
A498 renal = system: A498 renal
A549 NSCLC = system: A549 NSCLC
ACHN renal = system: ACHN renal
BT-549 breast = system: BT-549 breast
CAKI-1 renal = system: CAKI-1 renal
CCRF-CEM leukemia = system: CCRF-CEM leukemia
COLO 205 colon = system: COLO 205 colon
DU-145 prostate = system: DU-145 prostate
EKVX NSCLC = system: EKVX NSCLC
HCC-2998 colon = system: HCC-2998 colon
HCT-116 colon = system: HCT-116 colon
HCT-15 colon = system: HCT-15 colon
HL-60(TB) leukemia = system: HL-60(TB) leukemia
HOP-62 NSCLC = system: HOP-62 NSCLC
HOP-92 NSCLC = system: HOP-92 NSCLC
HS 578T breast = system: HS 578T breast
HT29 colon = system: HT29 colon
IGROV1 ovarian = system: IGROV1 ovarian
K-562 leukemia = system: K-562 leukemia
KM12 colon = system: KM12 colon
LOX IMVI melanoma = system: LOX IMVI melanoma
M14 melanoma = system: M14 melanoma
MALME-3M melanoma = system: MALME-3M melanoma
MCF7 breast = system: MCF7 breast
MDA-MB-231 breast = system: MDA-MB-231 breast
MDA-MB-435 = system: MDA-MB-435
MDA-MB-468 breast = system: MDA-MB-468 breast
MOLT-4 leukemia = system: MOLT-4 leukemia

Compound `COc1cc(NC(=O)c2cc(-c3ccc(F)cc3F)ccc2O)cc(OC)c1OC` has a GI50 (786-0 renal) of 19.4 µM, a TGI (786-0 renal) of 46.6 µM and a GI50 (A498 renal) of 12.1 µM. It also gave a TGI (A498 renal) of 25.8 µM, a GI50 (A549 NSCLC) of 12.7 µM and a TGI (A549 NSCLC) of 35.1 µM. The GI50 (ACHN renal) was 16.2 µM, the TGI (ACHN renal) was 66.3 µM and the GI50 (BT-549 breast) was 5.29 µM. It also gave a TGI (BT-549 breast) of 22.6 µM, a GI50 (CAKI-1 renal) of 7.67 µM and a TGI (CAKI-1 renal) of 38.8 µM. The GI50 (CCRF-CEM leukemia) was 6.23 µM, the TGI (CCRF-CEM leukemia) was 29.7 µM and the GI50 (COLO 205 colon) was 18.2 µM. The TGI (COLO 205 colon) was 34.4 µM, the GI50 (DU-145 prostate) was 13.9 µM and the TGI (DU-145 prostate) was 39.4 µM. The GI50 (EKVX NSCLC) was 12.3 µM, the TGI (EKVX NSCLC) was 48.3 µM and the GI50 (HCC-2998 colon) was 11.9 µM. It also gave a TGI (HCC-2998 colon) of 25.4 µM, a GI50 (HCT-116 colon) of 13.7 µM and a TGI (HCT-116 colon) of 32.2 µM. The GI50 (HCT-15 colon) was 5.63 µM, the TGI (HCT-15 colon) was 24.9 µM and the GI50 (HL-60(TB) leukemia) was 6.09 µM. The TGI (HL-60(TB) leukemia) was > 100 µM, the GI50 (HOP-62 NSCLC) was 13.4 µM and the TGI (HOP-62 NSCLC) was 33.2 µM. It also gave a GI50 (HOP-92 NSCLC) of 3.49 µM, a TGI (HOP-92 NSCLC) of 15.9 µM and a GI50 (HS 578T breast) of 5.2 µM. For the same compound, the TGI (HS 578T breast) was 26.9 µM, the GI50 (HT29 colon) was 17.9 µM and the TGI (HT29 colon) was 33.6 µM. For the same compound, the GI50 (IGROV1 ovarian) was 10.4 µM, the TGI (IGROV1 ovarian) was 30.9 µM and the GI50 (K-562 leukemia) was 5.1 µM. The TGI (K-562 leukemia) was > 100 µM, the GI50 (KM12 colon) was 10.2 µM and the TGI (KM12 colon) was 23.3 µM. For the same compound, the GI50 (LOX IMVI melanoma) was 13 µM, the TGI (LOX IMVI melanoma) was 27.3 µM and the GI50 (M14 melanoma) was 15.3 µM. The TGI (M14 melanoma) was 31.8 µM, the GI50 (MALME-3M melanoma) was 11.4 µM and the TGI (MALME-3M melanoma) was 25.9 µM. It also gave a GI50 (MCF7 breast) of 9.64 µM, a TGI (MCF7 breast) of 43.1 µM and a GI50 (MDA-MB-231 breast) of 18.8 µM. It also gave a TGI (MDA-MB-231 breast) of 51.2 µM, a GI50 (MDA-MB-435) of 6.27 µM and a TGI (MDA-MB-435) of 19.4 µM. The GI50 (MDA-MB-468 breast) was 3.98 µM, the TGI (MDA-MB-468 breast) was 17 µM and the GI50 (MOLT-4 leukemia) was 5.9 µM. It also gave a TGI (MOLT-4 leukemia) of 36.4 µM.
